According to ChEMBL document CHEMBL1201862, “PubChem BioAssay data set” (2004):
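Protocol summary: plate cells (96-well), add compound at 5 concentrations, incubate 48 h, interpolate endpoints linearly. Abbreviation: GI50, concentration required for 50% inhibition of growth.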 Activity calls are given as the source filed them. Rule as the data show it: active = GI50 up to about 1.1 µM and inactive = higher.

What was measured:
Assay in all cases: growth of human tumour cells (NCI), 48 h
Hs-578T = tested on: Hs-578T
LXFL 529 = tested on: LXFL 529
KM-20L2 = tested on: KM-20L2
M19-MEL = tested on: M19-MEL
DMS-273 = tested on: DMS-273
DMS-114 = tested on: DMS-114
HOP-18 = tested on: HOP-18
XF498 = tested on: XF498
RXF 631 = tested on: RXF 631

With `COC(=O)C1=C(O)C(C(=O)OC)[C@@]2(O)[C@@H](C(=O)OC)[C@H](C)[C@@H](C)[C@@H]1[C@@H]2C(=O)OC` (some centres undefined) the GI50 (Hs-578T) was 27.4 µM (inactive).

In the case of `C/C(CCN(C)C)=N\OC(=O)c1ccccc1`, the GI50 (LXFL 529) is reported as > 100 µM (inactive), the GI50 (KM-20L2) is reported as > 100 µM (inactive) and the GI50 (M19-MEL) is reported as > 100 µM (inactive). For the same molecule, the GI50 (DMS-273) was > 100 µM (inactive), the GI50 (DMS-114) was > 100 µM (inactive) and the GI50 (HOP-18) was 1.66 µM (inactive).

`O=NN1CCNC1Cc1ccccc1` (centres undefined) was tested, and the GI50 (Hs-578T) was > 100 µM (inactive).

For `C=CC[C@@]1(C(=O)OC)[C@H](Sc2ccccc2)C1(C)C`, the GI50 (Hs-578T) was 55.6 µM (inactive).

`CCC(C)n1c(C)nc2c1C(=O)c1ccccc1C2=O` (centres undefined) was tested, and the GI50 (LXFL 529) was 33.4 µM (inactive), the GI50 (KM-20L2) was 43.7 µM (inactive) and the GI50 (XF498) was 44.8 µM (inactive). For the same molecule, the GI50 (M19-MEL) was 18.2 µM (inactive) and the GI50 (DMS-273) was 34.2 µM (inactive).

`O=C1CSC2(CC(/C=C/c3ccccc3)=NN2c2cccc(S(=O)(=O)O)c2)N1c1nc2ccccc2s1` (centres undefined) was tested, and the GI50 (Hs-578T) was 55.5 µM (inactive).

For `CCCCCCCCCC[C@@H](O)[C@@H]1CC[C@@H]([C@@H]2CC[C@@H]([C@@H](O)CCCCCCCCCCC(O)CC3=CC(C)OC3=O)O2)O1` (some centres undefined), the GI50 (Hs-578T) was > 10 µM (inactive).

With `CC1(C)O[C@H]2OC(CO[Si](C)(C)C(C)(C)C)C(N=[N+]=[N-])[C@H]2O1` (some centres undefined) the GI50 (Hs-578T) was 23.6 µM (inactive).

`CCN(CC)CCNc1ccc2nnn3c4ccc(OCCN(CC)CC)cc4c(=O)c1c23` was tested, and the GI50 (Hs-578T) was > 100 µM (inactive).

`O=C1/C(=C/c2ccc(Cl)cc2)CCC/C1=C\c1ccc(O)c(CN2CCCCC2)c1` was tested, and the GI50 (Hs-578T) was 15.7 µM (inactive).

For `Cn1c(-c2ccccc2)cc(-c2cccs2)c1-c1ccsc1`, the GI50 (Hs-578T) was > 100 µM (inactive).

`Cc1ccc(/C=C2\CN(C)CC3=C2OC(N)=C(C#N)C3c2ccc(C)cc2)cc1` (centres undefined) was tested, and the GI50 (Hs-578T) was 46.3 µM (inactive).

`COc1cccc(C2SCc3nc4ccccc4n32)c1` (centres undefined) was tested, and the GI50 (M19-MEL) was 46.6 µM (inactive), the GI50 (DMS-273) was 39.1 µM (inactive) and the GI50 (DMS-114) was 21.3 µM (inactive). The GI50 (HOP-18) was > 100 µM (inactive).

`C=C1CN=C(Nc2ccc(Cl)cc2)S1` was tested, and the GI50 (Hs-578T) was > 100 µM (inactive).

`CC(=O)NNc1nc(C)c(C(=O)NNC(=O)C(=O)Nc2c(C)cccc2C(C)(C)C)s1` was tested, and the GI50 (LXFL 529) was 69.8 µM (inactive), the GI50 (KM-20L2) was 83.4 µM (inactive) and the GI50 (XF498) was > 100 µM (inactive). For the same molecule, the GI50 (M19-MEL) was 48 µM (inactive) and the GI50 (DMS-273) was 47.1 µM (inactive).

For `CC(C)=CC(Cc1ccccc1)S(=O)(=O)c1nc2ccccc2s1` (centres undefined), the GI50 (Hs-578T) was 29.6 µM (inactive).

For `C=C1CCN2CC[C@@H](OC(=O)/C(C)=C\C)[C@@H]12`, the GI50 (Hs-578T) was > 100 µM (inactive).

In the case of `C[Si](C)(C)C#CCOC=C1CC1`, the GI50 (Hs-578T) is reported as > 100 µM (inactive).

`CC(C)(C)c1cc(C(CO)OCCOCCO)cc(C(C)(C)C)c1O` (centres undefined) was tested, and the GI50 (Hs-578T) was > 100 µM (inactive).

`Cc1ccc(C(=O)N/N=C(\N=N\c2cccc(C)c2)c2ccc(N(CCC#N)CCC#N)cc2C)cc1` was tested, and the GI50 (Hs-578T) was 51.9 µM (inactive).

With `ClC1=C(Cl)C(Cl)(Cl)SS1` the GI50 (Hs-578T) was > 10 µM (inactive).

In the case of `Cc1nc2c(=O)[nH]c(=O)n(C)c2[nH]c1=O.c1ccncc1`, the GI50 (LXFL 529) is reported as > 100 µM (inactive), the GI50 (KM-20L2) is reported as > 100 µM (inactive) and the GI50 (M19-MEL) is reported as > 100 µM (inactive). The GI50 (DMS-273) was > 100 µM (inactive).

In the case of `NC(=O)c1c(NC=O)ncn1C1OCC(O)C(O)C1O` (centres undefined), the GI50 (Hs-578T) is reported as > 100 µM (inactive).

For `CC[C@@]1(O)C[C@H](OC2CC(N(C)C)C(OC3CC(O)C(OC4CC(O)C(O)C(C)O4)C(C)O3)C(C)O2)c2c(cc3c(c2O)C(=O)c2c(O)ccc(O)c2C3=O)[C@H]1C(=O)OC` (some centres undefined), the GI50 (KM-20L2) was 0.108 µM (active), the GI50 (XF498) was 0.0189 µM (active) and the GI50 (M19-MEL) was 0.0121 µM (active). For the same molecule, the GI50 (DMS-273) was 0.0108 µM (active), the GI50 (DMS-114) was 0.0853 µM (active) and the GI50 (HOP-18) was 0.136 µM (active).

In the case of `COc1ccc(C2C(Cl)C(=O)N2NC(=O)Cc2ccccc2)cc1OC` (centres undefined), the GI50 (KM-20L2) is reported as > 100 µM (inactive), the GI50 (XF498) is reported as > 100 µM (inactive) and the GI50 (M19-MEL) is reported as > 100 µM (inactive). The GI50 (DMS-273) was > 100 µM (inactive), the GI50 (DMS-114) was > 100 µM (inactive) and the GI50 (HOP-18) was > 100 µM (inactive).

For `O=c1c2cccnc2ncn1CCCN1CCCCC1`, the GI50 (XF498) was > 100 µM (inactive), the GI50 (M19-MEL) was > 100 µM (inactive) and the GI50 (DMS-273) was > 100 µM (inactive). The GI50 (DMS-114) was > 100 µM (inactive).

For `COc1ccc(-c2onc(-c3c(C)cc(C)cc3C)c2C2=NCCN2)cc1`, the GI50 (LXFL 529) was > 100 µM (inactive), the GI50 (KM-20L2) was 28.3 µM (inactive) and the GI50 (M19-MEL) was 86.5 µM (inactive). The GI50 (RXF 631) was 70.6 µM (inactive) and the GI50 (HOP-18) was 10.9 µM (inactive).

In the case of `c1ccc(C(c2cccc3c2ccc2ccccc23)C(c2ccccc2)c2cccc3c2ccc2ccccc23)cc1` (centres undefined), the GI50 (Hs-578T) is reported as > 100 µM (inactive).

`CCOC(=O)C(NC(=O)Nc1ccccc1F)(OC)C(F)(F)F` (centres undefined) was tested, and the GI50 (Hs-578T) was > 100 µM (inactive).

In the case of `O=C1OC(=O)C2=C1C(c1cccs1)C=C(c1cccnc1)N2c1ccncc1` (centres undefined), the GI50 (Hs-578T) is reported as 18.7 µM (inactive).

With `COCN1C(=O)[C@@H]2CCCN2C(=O)c2ccc(N)cc21` the GI50 (Hs-578T) was > 100 µM (inactive).

With `COC1OC(COC(=O)c2cc(O)c(O)c(O)c2)C(OC(=O)c2cc(O)c(O)c(O)c2)C(OC(=O)c2cc(O)c(O)c(O)c2)C1OC(=O)c1cc(O)c(O)c(O)c1` (centres undefined) the GI50 (Hs-578T) was > 100 µM (inactive).

`N#CC12C(=O)N3C(=NC(c4ccco4)NC3c3ccco3)C1(C#N)C(c1ccco1)NC1=C2CCCC1` (centres undefined) was tested, and the GI50 (Hs-578T) was > 100 µM (inactive).

In the case of `O=C1c2ccccc2-c2nc(/C=C/c3ccccc3)cc3c2c1nc1ccccc13`, the GI50 (Hs-578T) is reported as 12.3 µM (inactive).

`COc1cccc(NC(=O)CC(=O)N2N=C(C)C(/N=N/c3ccc(C(=O)O)cc3)C2=O)c1` (centres undefined) was tested, and the GI50 (Hs-578T) was > 100 µM (inactive).

With `N#CC(C#N)=Cn1c(=S)[nH]c2ccccc21` the GI50 (Hs-578T) was > 100 µM (inactive).

With `CC(=O)OCC1OC(OC2CC3C(C)(C)C(OC(C)=O)CC[C@]3(C)C3CCC45CC4(CCC5[C@@H](C)C[C@H](O)C(O)C(C)(C)O)[C@]23C)C(O)C(O)C1O` (some centres undefined) the GI50 (Hs-578T) was > 10 µM (inactive).

In the case of `COc1cc2c3c(c1OC)Oc1ccc(cc1)CC1c4c(cc(OC)c(OC)c4Oc4ccc(cc4)CC3N(C)CC2)CCN1C` (centres undefined), the GI50 (LXFL 529) is reported as 20.6 µM (inactive), the GI50 (KM-20L2) is reported as 19.8 µM (inactive) and the GI50 (M19-MEL) is reported as 17.3 µM (inactive). The GI50 (DMS-273) was 15.3 µM (inactive), the GI50 (DMS-114) was 19.8 µM (inactive) and the GI50 (HOP-18) was 25.9 µM (inactive).
